We go through twelve molecules from patent publication US20110195505A1, “BACTERIAL STRAINS FOR BUTANOL PRODUCTION” (priority 2009, published 2011).

Marks after values point to notes of the source that are not given here.

Assay [1] concerns BP63 (L. plantarum PN0512ΔpyrFΔfabZ1). Description: Fatty acid supplements supporting growth of the fabZ1 mutant. The settings on record: fatty acid supplied at 80 mg/L; overnight incubation, OD600. The assay is classed as cell-based. How it is done: With 100 or 200 mg/liter of oleic acid the growth of BP63 was equivalent to that of the fabZ1^+ control strain, BP15. […] Thus, we conclude that fabZ1 in L. plantarum has the same function as FabN in E. faecalis (Wang, H. and Cronan, J. E. 2004. Functional replacement of the FabA and FabB proteins of Escherichia coli fatty acid synthesis by Enterococcus faecalis FabZ and FabF homologs. J. Biol. Chem. 279, 34489-95). To further test the range of fatty acid supplements that support growth of the fabZ1 mutant, several other fatty acids were supplied at 80 mg/L to the semi-synthetic LAB medium as described above. BP63 and the parental control BP15 were inoculated from the working stocks. After overnight incubation, the OD600 was measured. The growth of BP15 was not inhibited by any of the fatty acids tested. The Table 9 below summarizes the results for the fabZ1 mutant strain, BP63.

The test system of assay [2] is L. plantarum strain PN0512. The assay is described as follows: FAME analysis of membrane lipids of stearic acid fed cultures. The assay is classed as cell-based, Lactobacillus plantarum. Here is the method:
The membrane lipids were extracted by modified Bligh and Dyer protocol (Can. J. Biochem. Physiol. (1959) 37:911-17). The cell pellet prepared as described above was suspended in a mixture of 0.5 ml CHCl3 and 1 ml CH3OH, and transferred to a 13×100 mm tube with a screw top cap. The cap was screwed on about ¾ of the way (i.e., not tight), and the tube was incubated at 40° C. for 30 min. The tube was cooled and an additional 0.5 ml CHCl3 and 1 ml H2O were added the mixture. […] The two phases were equilibrated by vortexing. The two phases were allowed to separate; then the lower CHCl3 layer was removed and transferred to another 13×100 mm tube with a screw top cap. With the cap removed, the CHCl3 was evaporated under a stream of N2. Methyl esters of the fatty acids in the residue were then formed using one of the following procedures.
1 ml freshly made 1.0 M CH3ONa in CH3OH was added to the tubes containing lipid samples extracted by the Bligh and Dyer method as described above. The caps were placed on tubes, screwed on about ¾ of the way (i.e., not tight), then the tubes were heated at 60° C. for 30 minutes. The mixture was chilled in ice bath and 1 ml of 1.0 N HCl was added to the solution in the tubes. The pH of the resulting solution was checked with pH paper to make sure a pH of 7 or lower had been reached. 0.5 ml hexane was added into the test tube and mixed well by vortexing. The tubes were allowed to sit for a few minutes until two phases formed. The top hexane layer was removed and placed in a separate tube for storage until analysis, which was done by GC/FID and/or GC/MS. 2 μl of the hexane layer was injected into an Agilent GC (model 6890)/MS (model 5973). For routine samples a Supelco Equity-1 column (15 m×0.25 mm×0.25 μm film thickness; catalog #28045-U) was used with an FID detector (GC/FID). When an unknown peak needed to be identified, the same column was used with an Agilent MSD detector (GC/MS). When samples requiring difficult separations that were impossible to achieve on a 15 m column were analyzed (e.g., the separation of oleic from elaidic acid), a Supelco S-2380 column (100 m×0.25 mm×0.25 μm film thickness; catalog #24317) was used.
For preparation of samples for FAME analysis, the working stock was used to inoculate 40 ml of medium containing free fatty acids and the cultures were grown overnight. The cell pellet was harvested by centrifugation and was washed twice with phosphate buffered saline (PBS, Bio-Rad Laboratories, Hercules, Calif.) and 5 g/l BSA, then two more times with PBS. Cell pellets were stored at −80° C. until analyzed by FAME using a transesterification protocol, which quantifies fatty acids that have been incorporated in membrane lipids, but not free fatty acids associated with the cell membrane. The FAME analysis is described by Christie (1993) (In Advances in Lipid Methodology—Two, pp. 69-111, Ed. W. W. Christie, Oily Press, Dundee).
Cultures of Lactobacillus plantarum strain PN0512 were grown in media containing stearic acid along with control cultures (with no added fatty acids to the media), as described in General Methods. The membrane composition was analyzed by FAME analysis as described in General Methods as well. The results of FAME analyses shown in Table 6 indicate that stearic acid (C18:0), when added to the growth medium of a culture of strain PN0512, was incorporated into the cell membrane thereby resulting in a substantial increase of the amount of stearic fatty acid in the cell membrane.

Assay [3] relates to L. plantarum strain PN0512. The assay is described as follows: Growth yield (OD600) in isobutanol, stearic acid fed and unfed cultures. It is filed as cell-based, Lactobacillus plantarum. The settings on record: for OD600 fed Stearic: stearic acid 50 mg per liter, 25 hours, 30° C. How it is done:
For growth yield experiments, 5 ml of medium with test fatty acids (10-500 mg per liter) and varying concentrations of isobutanol in 15 ml screw cap tubes was inoculated with 12.5 μl of the working stock giving an initial OD600 of 0.012. The caps were tightly sealed and incubated at 30° C. on a roller drum for 20 to 26 hours, at which time 1.0 ml was removed and OD600 was measured with a blank of medium amended with the fatty acid. All solvent concentrations are reported as % (w/v).
Growth of L. plantarum cultures in the media described in General Methods and containing varying concentrations of isobutanol was measured and compared with the cultures fed (supplemented with) stearic acid at a final concentration of 50 mg per liter of medium. Cultures were prepared as described in General Methods.

As to `CCCCCCCC/C=C/CCCCCCCC(=O)O` [Elaidic], the “Supports growth of BP63” value in assay [1] is on record as “YES”.
Still for that read-out and setting: the same measure for `CCCCCCCC/C=C\CCCCCCCCCCCC(=O)O` [Erucic]: “Very slight growth”; for `CCCCC/C=C\C/C=C\CCCCCCCC(=O)O` [Linoleic]: “YES”; for `CCCCCCCCCCCCCC(=O)O` [Myristic, Tetradecanoic Acid]: “no”.
The same measure, in the same setting: the same measure for `CCCCCCCCCCCCCCCC(=O)O` [Palmitic, Hexadecanoic Acid]: “no”.
The same measure, in the same setting: the entry for `CCCCCC/C=C\CCCCCCCC(=O)O` [Palmitoleic] is “YES”.
As for `CCCCCCCCCCCCCCCCCC(=O)O` [Stearic Acid, Octadecanoic Acid], in assay [2] (ratio of molar %), the “Membrane Fatty Acid Effect (stearic acid fed)/(stearic acid not fed), C16:0” value stood at 0.52; the “Membrane Fatty Acid Effect (stearic acid fed)/(stearic acid not fed), C16:1” value is 1.30; the “Membrane Fatty Acid Effect (stearic acid fed)/(stearic acid not fed), C18:0” value is 33.2; the “Membrane Fatty Acid Effect (stearic acid fed)/(stearic acid not fed), C18:1, cis” value is 0.78. Further, the “Membrane Fatty Acid Effect (stearic acid fed)/(stearic acid not fed), cyc-C19:0” value in assay [2] (ratio of molar %) is given as 1.23. In assay [2] (stearic acid (C18:0) fed), the “Membrane Fatty Acid Content, C16:0” value worked out at 14.1 molar %; the “Membrane Fatty Acid Content, C16:1” value stood at 10.0 molar %; the “Membrane Fatty Acid Content, C18:0” value came to 16.6 molar %; the “Membrane Fatty Acid Content, C18:1, cis” value is on record as 34.4 molar %. For the same molecule, the “Membrane Fatty Acid Content, cyc-C19:0” value in assay [2] (stearic acid (C18:0) fed) was determined as 25.0 molar %. In assay [2] (with stearic acid feeding), the “increase of molar % of stearic acid in the cell membrane” value is “more than 30 fold” and the “increase of molar ratio saturated/unsaturated fatty acids” value worked out at 16%. The “molar ratio of saturated fatty acids (C16:0 and C18:0) to unsaturated fatty acids (C16:1 and C18:1, cis)” value in assay [2] (with stearic acid feeding (0.53 without)) was determined as 0.69. In addition, in assay [3] (0 % w/v isobutanol), the “OD600 Ratio OD600fed/OD600unfed control” value was 1.08 and the “OD600 fed Stearic” value stood at 1.452. In addition, in assay [3] (2.3 % w/v isobutanol), the “OD600 Ratio OD600fed/OD600unfed control” value was 1.18 and the “OD600 fed Stearic” value was found to be 0.860. Moreover, in assay [3] (2.5 % w/v isobutanol), the “OD600 Ratio OD600fed/OD600unfed control” value turned out to be 1.23 and the “OD600 fed Stearic” value amounted to 0.422. Besides, in assay [3] (2.7 % w/v isobutanol), the “OD600 Ratio OD600fed/OD600unfed control” value is given as 1.57^b and the “OD600 fed Stearic” value worked out at 0.206. For the same molecule, in assay [3] (2.9 % w/v isobutanol), the “OD600 Ratio OD600fed/OD600unfed control” value was 1.92 and the “OD600 fed Stearic” value is 0.098. In addition, in assay [3] (all tested concentrations of isobutanol), the “growth yield of stearic acid fed cultures compared with control cultures” value is “greater”. Moreover, the “Supports growth of BP63” value in assay [1] was “no”.
Turning to `CCCCCCCC/C=C\CCCCCCCCCC(=O)O` [cis 11-eicosenoic], in assay [1], the “Supports growth of BP63” value was “YES”.
For `CCCCCC/C=C\CCCCCCCCCCCC(=O)O` [cis 13 eicosenoic], the “Supports growth of BP63” value in assay [1] was “no”.
On the same count and under the same terms, the entry for `CCCCC/C=C\C/C=C\CCCCCCCCCC(=O)O` [cis-11,14-Eicosadienoic] is “Partial growth”.
Take `CCCCCC/C=C\CCCCCCCCCC(=O)O` [cis-Vaccenic]: the “Supports growth of BP63” value in assay [1] is on record as “YES”.
Still for that read-out and setting: the entry for `CCCCCCCC[C@@H]1C[C@@H]1CCCCCCCC(=O)O` [dihydrosterculic, Dihydrosterculic acid] is “YES”.
